In patent publication US20250287944A1, “AMINOETHOXYVINYLGLYCINE AND 1-AMINO-1-CYCLOPROPANECARBOXYLIC ACID AND USES THEREOF” (Valent BioSciences LLC, priority 2024, published 2025):

Columns and labels:
Format in all cases: in vivo
[1] = test system: apples, Cripps Pink variety; assay: Apple greasiness in Cripps Pink variety; conditions: 12 weeks of cold storage and 7 days at room temperature
Method: (§1) 10 sets of unripened apples, Cripps Pink variety, harvested three weeks before the normal harvest date, were each foliar sprayed with either 1) 0.05% Regulaid® as a control, 2) 125 ppm ACC, 3) 250 ppm ACC, 4) 500 ppm ACC, 5) 125 ppm AVG, 6) 125 ppm ACC and 125 ppm AVG, 7) 250 ppm ACC and 125 ppm AVG or 8) 500 ppm ACC and 125 ppm AVG. Following 12 weeks of cold storage and 7 days at room temperature greasiness was measured.

[2] = test system: apple trees with mature apples of the Cripps Pink variety; assay: Fruit drop in Cripps Pink variety
Text: AVG and/or ACC were applied to apple trees with mature apples of the Cripps Pink variety, wherein each set of trees were foliar sprayed with either 1) 0.05% Regulaid® as a control, 2) 125 ppm ACC, 3) 250 ppm ACC, 4) 500 ppm ACC, 5) 125 ppm AVG, 6) 125 ppm ACC and 125 ppm AVG, 7) 250 ppm ACC and 125 ppm AVG or 8) 500 ppm ACC and 125 ppm AVG.

[3] = test system: apples, Cripps Pink variety; assay: Apple characteristics in Cripps Pink variety (red pixel area, ground color, firmness, starch conversion, brix); design: Ground Color / Starch: scale not given here; Firmness: unit not given here; conditions: 34 hours post spray; for Average % Red Pixel Area: shaded; for Starch: starch conversion
Method: as §1, with “34 hours post spray application percent red pixel area (shaded), ground color, fruit firmness, starch conversion” for “Following 12 weeks of cold storage”, “brix were” for “7 days at room temperature greasiness was”

[4] = test system: apples, Cripps Pink variety; assay: Apple coloration in Cripps Pink variety (blush classes); conditions: 34 hours post spray; for % Cripps Red: apples with a blush from 20% to 40%; for % Pink Lady: apples with a blush of greater than 40%; for % Class 3: apples with a blush of less than 20%
Method: 10 sets of unripened apples, Cripps Pink variety, harvested three weeks before the normal harvest date, were each foliar sprayed with either 1) 0.05% Regulaid® as a control, 2) 125 ppm ACC, 3) 250 ppm ACC, 4) 500 ppm ACC, 5) 125 ppm AVG, 6) 125 ppm ACC and 125 ppm AVG, 7) 250 ppm ACC and 125 ppm AVG or 8) 500 ppm ACC and 125 ppm AVG. 34 hours post spray application percent red pixel area (shaded) was measured. Pink Lady denotes apples with a blush of greater than 40%, Cripps Red denotes apples with a blush from 20% to 40% and Class 3 denotes apples with a blush of less than 20%.

[5] = harvest 1, 125 ppm foliar spray
[6] = harvest 1, 250 ppm foliar spray
[7] = harvest 1, 500 ppm foliar spray
[8] = harvest 2, 125 ppm foliar spray
[9] = harvest 2, 250 ppm foliar spray
[10] = harvest 2, 500 ppm foliar spray

## NC1(C(=O)O)CC1 [ACC, 1-amino-1-cyclopropanecarboxylic acid]
[1]; [5]
  Percent Fruit with Moderate Greasiness: 40%
  Percent Fruit with No Greasiness: 21%
  Percent Fruit with Severe Greasiness: 17%
  Percent Fruit with Slight Greasiness: 22%
[1]; [6]
  Percent Fruit with Moderate Greasiness: 40%
  Percent Fruit with No Greasiness: 5%
  Percent Fruit with Severe Greasiness: 39%
  Percent Fruit with Slight Greasiness: 16%
[1]; [7]
  Percent Fruit with Moderate Greasiness: 44%
  Percent Fruit with No Greasiness: 1%
  Percent Fruit with Severe Greasiness: 48%
  Percent Fruit with Slight Greasiness: 7%
[1]; [8]
  Percent Fruit with Moderate Greasiness: 31.1%
  Percent Fruit with No Greasiness: 0%
  Percent Fruit with Severe Greasiness: 68.9%
  Percent Fruit with Slight Greasiness: 0%
[1]; [9]
  Percent Fruit with Moderate Greasiness: 15%
  Percent Fruit with No Greasiness: 0%
  Percent Fruit with Severe Greasiness: 85%
  Percent Fruit with Slight Greasiness: 0%
[1]; [10]
  Percent Fruit with Moderate Greasiness: 19%
  Percent Fruit with No Greasiness: 0%
  Percent Fruit with Severe Greasiness: 81%
  Percent Fruit with Slight Greasiness: 0%
[2]; 125 ppm foliar spray to trees
  # of Fruit Dropped (Evaluation 1): 11.3 c
  # of Fruit Dropped (Evaluation 2): 10.4 bc
  Total # of Fruit Dropped: 26.3 c
[2]; 250 ppm foliar spray to trees
  # of Fruit Dropped (Evaluation 1): 15.2 c
  # of Fruit Dropped (Evaluation 2): 16.4 b
  Total # of Fruit Dropped: 35.2 bc
[2]; 500 ppm foliar spray to trees
  # of Fruit Dropped (Evaluation 1): 59.7 a
  # of Fruit Dropped (Evaluation 2): 40.1 a
  Total # of Fruit Dropped: 105.8 a
[3]; 125 ppm foliar spray
  Brix: 12.25
  Firmness: 8.61
  Ground Color: 3.01
  Average % Red Pixel Area: 6.9%
  Starch: 40
[3]; 250 ppm foliar spray
  Brix: 12.5
  Firmness: 8.58
  Ground Color: 2.96
  Average % Red Pixel Area: 8%
  Starch: 45.3
[3]; 500 ppm foliar spray
  Brix: 12.51
  Firmness: 8.4
  Ground Color: 3.04
  Average % Red Pixel Area: 8.7%
  Starch: 56.2
[4]; 125 ppm foliar spray
  % Cripps Red: 15%
  % Pink Lady: 76.5%
  % Class 3: 8.5%
[4]; 250 ppm foliar spray
  % Cripps Red: 11.5%
  % Pink Lady: 84.5%
  % Class 3: 4%
[4]; 500 ppm foliar spray
  % Cripps Red: 9%
  % Pink Lady: 89%
  % Class 3: 2%

## NCCO/C=C/[C@H](N)C(=O)O [AVG, ([S]-trans-2-amino-4-(2-aminoethoxy)-3-butenoic acid]
[1]; [5]
  Percent Fruit with Moderate Greasiness: 1%
  Percent Fruit with No Greasiness: 94%
  Percent Fruit with Severe Greasiness: 0%
  Percent Fruit with Slight Greasiness: 5%
[1]; [8]
  Percent Fruit with Moderate Greasiness: 49%
  Percent Fruit with No Greasiness: 22%
  Percent Fruit with Severe Greasiness: 2%
  Percent Fruit with Slight Greasiness: 27%
[2]; 125 ppm foliar spray to trees
  # of Fruit Dropped (Evaluation 1): 9.7 c
  # of Fruit Dropped (Evaluation 2): 7.4 c
  Total # of Fruit Dropped: 20.8 c
[3]; 125 ppm foliar spray
  Brix: 12.33
  Firmness: 8.62
  Ground Color: 2.93
  Average % Red Pixel Area: 6.3%
  Starch: 25.9
[4]; 125 ppm foliar spray
  % Cripps Red: 21.5%
  % Pink Lady: 69.5%
  % Class 3: 9%
